Measured values from patent US6432438B1, “Biodegradable vehicle and filler” (priority 1997, dated 2002).
Structures can show the parent of a compound that is named as a salt.

How the values were obtained:
[1] = Drug release from drug-loaded biodegradable vehicles at 37° C. in isotonic phosphate buffer; format: physicochemical; settings: compared to hydrated naltrexone base, 25% polymer (i.v. 0.64) with pure PEG 400 or 50/50% PEG 400/TEC, drug 20% w/w
[2] = Solubility in water / dissolution buffer; format: physicochemical; settings: compared to hydrated naltrexone base; isotonic phosphate buffer
[3] = Drug release from drug-loaded biodegradable vehicles at 37° C. in isotonic phosphate buffer; format: physicochemical; settings: for drug release: drug 20% w/w
Protocol: A polymer (25% w/w of 50/50 lactide-co-glycolide copolymer, inherent viscosity of 0.59) was dissolved in a minimum quantity of acetone. […] The resulting solutions were stirred to yield uniform mixtures. Acetone was evaporated from the mixtures by heating at 60-75° C. with constant stirring. The biodegradable vehicles were kept in a vacuum oven at 60-75° C. overnight to ensure complete removal of acetone. […] Oxytetracycline base (20% w/w) was added to each biodegradable vehicle and mixed thoroughly to ensure uniform distribution of the drug in the formulations. Drug release from the drug-loaded biodegradable vehicles was performed at 37° C. in isotonic phosphate buffer containing sodium sulfite as an antioxidant. […]
A polymer (25% w/w of 50/50 lactide-co-glycolide copolymer, inherent viscosity of 0.59) was dissolved in a minimum quantity of acetone. Either pure polyethylene glycol 400, triethyl citrate (TEC) or acetyl triethyl citrate (ATEC) was added to the polymer solution. The resulting solutions were stirred to yield uniform mixtures. Acetone was evaporated from the mixtures by heating at 60-75° C. with constant stirring. The biodegradable vehicles were kept in a vacuum oven at 60-75° C. overnight to ensure complete removal of acetone. […] Oxytetracycline base (20% w/w) was added to each biodegradable vehicle and mixed thoroughly to ensure uniform distribution of the drug in the formulations. Drug release from the drug-loaded biodegradable vehicles was performed at 37° C. in isotonic phosphate buffer containing sodium sulfite as an antioxidant. Drug release was fastest from formulations prepared with PEG 400, and slowest from those prepared with ATEC.
The resulting solutions were stirred to yield uniform mixtures. Acetone was evaporated from the mixtures by heating at 60-75° C. with constant stirring. The biodegradable vehicles were kept in a vacuum oven at 60-75° C. overnight to ensure complete removal of acetone. […] Oxytetracycline base (20% w/w) was added to each biodegradable vehicle and mixed thoroughly to ensure uniform distribution of the drug in the vehicles. Drug release from the drug-loaded biodegradable vehicles was performed at 37° C. in isotonic phosphate buffer containing sodium sulfite as an antioxidant. Faster drug release was observed from formulations prepared with a 16.67% polymer and 83.3% of plasticizer blends of varying compositions (polymer to plasticizer ratio of 1:5) compared to those prepared from formulations with polymer to plasticizer ratios of […] (i.e. […]). This is because increasing the polymer concentration in the formulations from 16.67% to 33.3% increased the viscosity of the formulations and decreased the drug diffusion from the formulations. […]
The solutions were stirred to yield a uniform mixture. Acetone was evaporated from the mixtures by heating at 60-75° C. with constant stirring. The biodegradable vehicles were kept in a vacuum oven at 60-75° C. overnight to ensure complete removal of acetone. […] Either hydrated naltrexone base (20% w/w) or naltrexone hydrochloride (20% w/w) was added to the biodegradable vehicles and mixed thoroughly to ensure uniform distribution of the drugs in the formulations. Drug release from the drug-loaded biodegradable vehicles was performed at 37° C. in isotonic phosphate buffer. […] This is because the solubility of the naltrexone hydrochloride in the dissolution buffer is much greater than that of the hydrated naltrexone base.
A similar drug release study was performed with formulations containing either 20% oxytetracycline hydrochloride or 20% oxytetracycline base. […] The solutions were stirred to yield a uniform mixture. Acetone was evaporated from the mixtures by heating at 60-75° C. with constant stirring. The biodegradable vehicles were kept in a vacuum oven at 60-75° C. overnight to ensure complete removal of acetone. […]

[4] = hydrochloride salt compared to the base; cited from earlier work

Q: Which drug release [1] does the source give for `O=C1CC[C@@]2(O)[C@H]3Cc4ccc(O)c5c4[C@@]2(CCN3CC2CC2)[C@H]1O5` [naltrexone hydrochloride] here?
A: Its drug release is “considerably faster”.

Q: What about the “solubility in the dissolution buffer” value [2] of the same compound?
A: The value was “much greater”.

Q: For `CN(C)[C@@H]1C(=O)C(C(N)=O)=C(O)[C@@]2(O)C(=O)C3=C(O)c4c(O)cccc4[C@@](C)(O)[C@H]3[C@H](O)[C@@H]12` [oxytetracycline base], which drug release ([3]; blend of 75% PEG 400 and 25% TEC compared to 50/50% PEG 400/TEC at similar polymer to plasticizer ratios) is on record?
A: The drug release was “considerably faster”.

Q: What about the drug release ([3]; formulations prepared from TEC, 25% w/w polymer, compared among PEG 400, TEC, ATEC) of the same compound?
A: The drug release was “Intermediate”.

Q: What about the drug release ([3]; formulations prepared with ATEC, 25% w/w polymer, compared among PEG 400, TEC, ATEC) of the same compound?
A: Its drug release is “slowest”.

Q: And the drug release ([3]; formulations prepared with PEG 400, 25% w/w polymer, compared among PEG 400, TEC, ATEC)?
A: Its drug release is “fastest”.

Q: What about the drug release ([3]; on decreasing inherent viscosity of polymer from 0.76 to 0.15, PEG 400) of the same compound?
A: Its drug release is “dramatically increased”.

Q: And the drug release ([3]; on decreasing polymer in the formulations from 25% to 10% (PEG 400 75% to 90%), 37° C.)?
A: The drug release was “dramatically increased”.

Q: What about the drug release ([3]; on increasing PEG 400 from 0% PEG 400/100% TEC to 100% PEG 400/0% TEC, 25% w/w polymer, 37° C.) of the same compound?
A: The drug release was “faster”.

Q: And the “cumulative amount of drug released” value ([3]; on increasing drug in the formulations from 10 to 30% w/w, 25% w/w 50/50 PLGA (i.v. 0.59) + PEG 400, 37° C., isotonic phosphate buffer with sodium sulfite)?
A: The value was “increased”.

Q: And the drug release ([3]; polymer to plasticizer ratio 1:5 (16.67% polymer) compared to 1:3, PEG 400/TEC blends)?
A: The drug release was “Faster”.

Q: For `CN(C)[C@@H]1C(O)=C(C(N)=O)C(=O)[C@@]2(O)C(O)=C3C(=O)c4c(O)cccc4[C@@](C)(O)[C@H]3[C@H](O)[C@@H]12` [oxytetracycline hydrochloride], which aqueous solubility [4] is on record?
A: The aqueous solubility was “greater”.
